# Measurements: paper PMC9331863 (Antibiotics, 2022)
# Like-named read-outs stand apart in the source and are kept apart here.
# Columns and labels:
# [1] = Population pharmacokinetic modelling of dalbavancin plasma concentrations (TDM) in patients; settings: for Q, inter-compartmental clearance / V1, central volume of distribution / V2, peripheral volume of distribution: typical value (%RSE)
# Method: The study was approved by the local Ethics Committee (registration number 897/2021/Oss/AOUBo). Signed informed consent was waived due to the retrospective and observational nature of the investigation according to hospital agreements.
# The dose amount (1000 mg or 1500 mg) was arbitrarily decided by the infectious diseases consultant at each patient center. The decision to administer any additional doses was taken in relation to the clinical evaluation of disease progression after at least 4 weeks from the administration of the second dose and it was based on the patient’s physical examination and on the trend of inflammatory biomarkers.
# Blood samples were collected at different time-points after the second dose and sent to our lab for analysis. […] The lower limit of quantification was 0.5 mg/L.
# At a first stage, a basic model was developed, by comparing one-, two- and three-compartment models with linear elimination. All individual parameters were log-normally distributed. Exponential random effects were assumed to describe inter-individual variability. Correlations between random effects were tested in the variance–covariance matrix and implemented into the structural model accordingly. Residual variability was tested according to three different error models (constant, proportional and combined error model).
# The following covariates were tested on the PK parameters of the base model: age, gender, weight, height, serum albumin, serum creatinine and CLCR. The parameter–covariate relationships were modeled as additive or proportional shifts from the reference category for binary covariates, whereas the effect of continuous covariates was modeled using a power function. A covariate was included in the model according to the results of the likelihood ratio test (LRT) and if a reduction in the BIC and a decrease in the interpatient variability of the fixed-effect parameters were obtained. Descriptions of the pharmacokinetic model building and covariate analysis are reported in the Supplementary Materials.
# [2] = cited from earlier work
# [3] = real-world use beyond approved indications, outpatient antimicrobial treatment; cited from earlier work
# [4] = cited from earlier work; remark: listed apart in the source
# Text: Data were retrieved from registrative phase II/III clinical trials.
# [5] = median (min–max) of population, 69 patients, two-compartment final model
# [6] = three-compartment model, 703 patients with ABSSSI, ref Carrothers et al. [12]
smiles,measurement,setting,value
CN[C@H]1C(=O)N[C@@H]2Cc3ccc(cc3)Oc3cc4cc(c3O[C@@H]3O[C@H](C(=O)O)[C@@H](O)[C@H](O)[C@H]3NC(=O)CCCCCCCCC(C)C)Oc3ccc(cc3Cl)[C@@H](O)[C@@H]3NC(=O)[C@H](NC(=O)[C@@H]4NC(=O)[C@@H](NC2=O)c2cc(cc(O)c2Cl)Oc2cc1ccc2O)c1ccc(O)c(c1)-c1c(O[C@H]2O[C@H](CO)[C@@H](O)[C@H](O)[C@@H]2O)cc(O)cc1[C@@H](C(=O)NCCCN(C)C)NC3=O [dalbavancin],"Q, inter-compartmental clearance",[1]; base model,0.026 (17.9) L/h
same,"V1, central volume of distribution",[1]; base model,6.15 (4.79) L
same,"V2, peripheral volume of distribution",[1]; base model,10.51 (13.7) L
same,"Q, inter-compartmental clearance",[1]; final model,0.026 (18.1) L/h
same,"V1, central volume of distribution",[1]; final model,6.14 (5.26) L
same,"V2, peripheral volume of distribution",[1]; final model,9.52 (19.0) L
same,"CL, total body clearance","[1]; human, in vivo",0.029 (11.6) L/h
same,Vd,"[1]; human, in vivo",15.7 L
same,clearance,"[1]; human, in vivo, CL, total body clearance",0.683 mL/min
same,clearance,"[1]; human, in vivo, population CL",0.717 mL/min
same,population V1,[1]; [5],6.21 (5.10–7.19) L
same,population V2,[1]; [5],9.48 (7.60–11.89) L
same,penetration rate into bone tissue,[2],13.1%
same,overall clinical success rate,[3],greater than 80%
same,elimination half-life,[4],> 180 h
same,population CL,[4]; [6],0.053 L/h
same,total V,[4]; [6],15.0 L
same,population CL,"[4]; two-compartment model, 532 patients (ABSSSI, bloodstream infections), ref Buckwalter et al. [11]",0.057 L/h
same,total V,"[4]; two-compartment model, 532 patients, ref Buckwalter et al. [11]",15.9 L
